# Assay results as given in patent publication US20250230193A1, “CYCLIC COMPOUND HAVING SELECTIVE KRAS INHIBITORY EFFECT ON HRAS AND NRAS” (CHUGAI SEIYAKU KABUSHIKI KAISHA, priority 2022, published 2025).
# *1 amine or outer side, *2 acyl side, *3 side chain or, on linkers, in order; H or OH if unused. Where a SMILES comes first, the peptide text is derived from it. Bridges are numbered along the chain shown (N, C = ends). [ ]: non-standard residue; d: D form. The star is where a group is joined. hPhe(3-Cl-4-CF3) = N[C@@H](CCc1ccc(C(F)(F)F)c(Cl)c1)C(=O)O; X18 = C=CCCN([C@@H](Cc1ccc(C(F)(F)F)cc1)C(=O)[*:2])[*:1]; NMeGly(cPent) = CN[C@H](C(=O)O)C1CCCC1; NMeD = CN[C@@H](CC(=O)O)C(=O)O; NMeL = CN[C@@H](CC(C)C)C(=O)O; Morpholide = C1CN(*)CCO1; NMeA = CN[C@@H](C)C(=O)O; Ac5c = NC1(C(=O)O)CCCC1; Aze = O=C(O)[C@@H]1CCN1; Sar = CNCC(=O)O
# Assays:
# [1] = molecular target: GDP-bound NRAS wild-type protein (Homo sapiens, UniProt P01111); test: Binding to NRAS by surface plasmon resonance (SPR), Single Cycle Kinetics
# [2] = molecular target: GDP-bound HRAS wild-type protein (Homo sapiens, UniProt P01112); test: Binding to HRAS by surface plasmon resonance (SPR), Single Cycle Kinetics
# [3] = KD ratio, GDP-bound NRAS wild-type vs GDP-bound KRAS wild-type, SPR
# [4] = KD ratio, GDP-bound HRAS wild-type vs GDP-bound KRAS wild-type, SPR
# Chain of GDP-bound NRAS wild-type protein (P01111 whole entry): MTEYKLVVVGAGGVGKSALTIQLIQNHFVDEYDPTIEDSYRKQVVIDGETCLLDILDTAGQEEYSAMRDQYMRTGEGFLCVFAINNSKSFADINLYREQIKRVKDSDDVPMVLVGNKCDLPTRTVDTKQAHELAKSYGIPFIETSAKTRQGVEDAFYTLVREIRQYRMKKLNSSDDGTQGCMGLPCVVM
# Chain of GDP-bound HRAS wild-type protein (P01112 whole entry): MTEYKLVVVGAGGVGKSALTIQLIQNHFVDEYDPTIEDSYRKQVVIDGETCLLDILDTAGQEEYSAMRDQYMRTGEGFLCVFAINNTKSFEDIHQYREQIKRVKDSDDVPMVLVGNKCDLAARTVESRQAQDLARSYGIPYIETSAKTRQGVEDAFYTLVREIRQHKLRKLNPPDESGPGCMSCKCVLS
structure (smiles),measurement,setting,value
CCO[C@@H]1C[C@H]2C(=O)NC3(CCC3)C(=O)N(C)[C@@H](C3CCCC3)C(=O)N(C)[C@H](C(=O)N3CCOCC3)CC(=O)N(C)[C@@H](CC(C)C)C(=O)N[C@@H](C3CC(F)(F)C3)C(=O)N(C)CC(=O)N(C)[C@H]3CCCCN(C3=O)[C@@H](Cc3ccc(C(F)(F)F)cc3)C(=O)N(C)CC(=O)N[C@@H](CCc3cc(F)c(C(F)(F)F)c(F)c3)C(=O)N2C1 [PP0807],NRAS/KRAS (ratio of KD value with respect to GDP-bound NRAS wild-type protein to KD value with respect to KRAS),"[1]; KD ratio NRAS/KRAS, SPR",B (a compound having 3 or more and less than 10 is denoted as B)
same,HRAS/KRAS (ratio of KD value with respect to GDP-bound HRAS wild-type protein to KD value with respect to KRAS),"[2]; KD ratio HRAS/KRAS, SPR",B (a compound having 3 or more and less than 10 is denoted as B)
CCO[C@@H]1C[C@H]2C(=O)NC3(CC(C)(C)C3)C(=O)N(C)[C@@H](C3CCCC3)C(=O)N(C)[C@H](C(=O)N(C)C)CC(=O)N(C)[C@@H](CC(F)(F)F)C(=O)N[C@@H]([C@@H](C)CC)C(=O)N(C)CC(=O)N(C)[C@H]3C/C=C\CCN(C3=O)[C@@H](Cc3ccc(C(F)(F)F)cc3)C(=O)N(C)CC(=O)N[C@@H](CCc3ccc(C(F)(F)F)c(Cl)c3)C(=O)N2C1 [PP2833],NRAS/KRAS (ratio of KD value with respect to GDP-bound NRAS wild-type protein to KD value with respect to KRAS),"[1]; KD ratio NRAS/KRAS, class symbols",A (a compound having 10 or more and less than 20 is denoted as A)
same,HRAS/KRAS (ratio of KD value with respect to GDP-bound HRAS wild-type protein to KD value with respect to KRAS),"[2]; KD ratio HRAS/KRAS, class symbols",A (a compound having 10 or more and less than 20 is denoted as A)
C=CCCN1C(=O)[C@@H]2CCN2C(=O)[C@H](C)N(C)C(=O)[C@H]([C@@H](C)CC)NC(=O)[C@H](CC(C)C)N(C)C(=O)C[C@@H](C(=O)N2CCOCC2)N(C)C(=O)[C@H](C2CCCC2)N(C)C(=O)C2(CCCC2)NC(=O)[C@@H]2CCCN2C(=O)[C@H](CCc2ccc(C(F)(F)F)c(Cl)c2)NC(=O)CN(C)C(=O)[C@@H]1Cc1ccc(C(F)(F)F)cc1 [PP0115] ([NMeL]I[NMeA][Aze][X18][Sar][hPhe(3-Cl-4-CF3)]P[Ac5c][NMeGly(cPent)][NMeD]-Morpholide; lactam N-11),NRAS/KRAS (ratio of KD for GDP-bound NRAS wild-type to KD for KRAS),"[1]; KD ratio NRAS/KRAS, SPR",C (A compound having a KD ratio of 0.1 or more and less than 3 is denoted as C)
same,HRAS/KRAS (ratio of KD for GDP-bound HRAS wild-type to KD for KRAS),"[2]; KD ratio HRAS/KRAS, SPR",C (A compound having a KD ratio of 0.1 or more and less than 3 is denoted as C)
CCO[C@@H]1C[C@H]2C(=O)N(C)C3(CC(C)(C)C3)C(=O)N(C)[C@@H](C3CCCC3)C(=O)N(C)[C@H](C(=O)N(C)C)CC(=O)N(C)[C@H]3CCC/C=C/c4ccc(cc4)C[C@@H](C(=O)N(C)CC(=O)N[C@@H](CCc4cc(F)c(C(F)(F)F)c(F)c4)C(=O)N2C1)N1CC/C=C\C[C@@H](C1=O)N(C)C(=O)CN(C)C(=O)[C@H]([C@@H](C)CC)NC3=O [PP3060],NRAS/KRAS (ratio of KD value with respect to GDP-bound NRAS wild-type protein to KD value with respect to KRAS),"[1]; KD ratio NRAS/KRAS, SPR, GDP-bound wild-type proteins",B (a compound having 3 or more and less than 10 is denoted as B)
same,HRAS/KRAS (ratio of KD value with respect to GDP-bound HRAS wild-type protein to KD value with respect to KRAS),"[2]; KD ratio HRAS/KRAS, SPR, GDP-bound wild-type proteins",B (a compound having 3 or more and less than 10 is denoted as B)
CCO[C@@H]1C[C@H]2C(=O)NC3(CCC3)C(=O)N(C)[C@@H](C3CCCC3)C(=O)N(C)[C@H](C(=O)N(C)CC)CC(=O)N(C)[C@@H](C3CC3)C(=O)N[C@@H]([C@@H](C)CC)C(=O)N(C)CC(=O)N(C)[C@H]3C/C=C\CCN(C3=O)[C@@H](Cc3ccc(C(F)(F)F)cc3)C(=O)N(C)CC(=O)N[C@@H](CCc3ccc(C(F)(F)F)c(OC)c3)C(=O)N2C1 [PP2021],NRAS/KRAS (ratio of KD value for NRAS to KD value for KRAS),[1]; [3],A (a compound having 10 or more and less than 20 is denoted as A)
same,HRAS/KRAS (ratio of KD value for HRAS to KD value for KRAS),[2]; [4],B (a compound having 3 or more and less than 10 is denoted as B)
CCO[C@@H]1C[C@H]2C(=O)NC3(CCC3)C(=O)N(C)[C@@H](C3CCCC3)C(=O)N(C)[C@H](C(=O)N(C)C)CC(=O)N(C)[C@@H](Cc3cccc(C#N)c3)C(=O)N[C@@H]([C@@H](C)CC)C(=O)N(C)CC(=O)N(C)[C@H]3CCCCCN(C3=O)[C@@H](Cc3ccc(F)cc3)C(=O)N(C)CC(=O)N[C@@H](CCc3cc(F)c(C(F)(F)F)c(F)c3)C(=O)N2C1 [PP1156],NRAS/KRAS (ratio of KD value with respect to NRAS to KD value with respect to KRAS),[1]; [3],B (a compound having 3 or more and less than 10 is denoted as B)
same,HRAS/KRAS (ratio of KD value with respect to HRAS to KD value with respect to KRAS),[2]; [4],B (a compound having 3 or more and less than 10 is denoted as B)
CCO[C@@H]1C[C@H]2C(=O)NC3(CC(C)(C)C3)C(=O)N(C)[C@@H](C3CCCC3)C(=O)N(C)[C@H](C(=O)N(CC)CC)CC(=O)N(C)[C@@H](COC)C(=O)N[C@@H]([C@@H](C)CC)C(=O)N(C)CC(=O)N(C)[C@H]3C/C=C\CCN(C3=O)[C@@H](Cc3ccc(C)cc3)C(=O)N(C)CC(=O)N[C@@H](CCc3ccc(C(F)(F)F)c(OC)c3)C(=O)N2C1 [PP2398],NRAS/KRAS (ratio of KD value with respect to NRAS to KD value with respect to KRAS),"[1]; SPR, GDP-bound NRAS wild-type vs GDP-bound KRAS wild-type",A (a compound having 10 or more and less than 20 is denoted as A)
same,HRAS/KRAS (ratio of KD value with respect to HRAS to KD value with respect to KRAS),"[2]; SPR, GDP-bound HRAS wild-type vs GDP-bound KRAS wild-type",A (a compound having 10 or more and less than 20 is denoted as A)
CCO[C@@H]1C[C@H]2C(=O)NC3(CCC3)C(=O)N(C)[C@@H](C3CCCC3)C(=O)N(C)[C@H](C(=O)N(C)C)CC(=O)N(C)[C@@H](Cc3ccccc3C#N)C(=O)N[C@@H]([C@@H](C)CC)C(=O)N(C)CC(=O)N(C)[C@H]3CCCCCN(C3=O)[C@@H](Cc3ccc(F)cc3)C(=O)N(C)CC(=O)N[C@@H](CCc3cc(F)c(C(F)(F)F)c(F)c3)C(=O)N2C1 [PP1155],NRAS/KRAS (ratio of KD value with respect to NRAS to KD value with respect to KRAS),[1]; [3],B (a compound having 3 or more and less than 10 is denoted as B)
same,HRAS/KRAS (ratio of KD value with respect to HRAS to KD value with respect to KRAS),[2]; [4],B (a compound having 3 or more and less than 10 is denoted as B)
